Measured values: PubChem BioAssay AID1963835 (Molecular Pharmacology Branch, DTP, NCI, 2024)

Tested on: 699152-130-R-J1-PDC complex spheroid viability
Test: Anticancer human tumor 699152-130-R-J1-PDC patient-derived pancreatic carcinoma cell line growth inhibition [POLQ]
Conditions: for IC50: curve of first compound; for viability, T/C: stronger effect = lower value
How it was run: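 PDC + HUVEC + MSC complex spheroids; POLQ inhibitors ± partner drugs; top conc. at/near clinical Cmax, else 10 microM (SN-38 1 microM), half-log dilutions; 37 degrees C, 5% CO2.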

[1] = second compound 0.0316 µM, first compound 0.0316 µM
[2] = second compound 0.0316 µM, first compound 0.1 µM
[3] = second compound 0.0316 µM, first compound 0.316 µM
[4] = second compound 0.0316 µM, first compound 1 µM
[5] = second compound 0.0316 µM, first compound 3.16 µM
[6] = second compound 0.0316 µM, first compound 10 µM
[7] = second compound 0.1 µM, first compound 0.0316 µM
[8] = second compound 0.1 µM, first compound 0.1 µM
[9] = second compound 0.1 µM, first compound 0.316 µM
[10] = second compound 0.1 µM, first compound 1 µM
[11] = second compound 0.1 µM, first compound 3.16 µM
[12] = second compound 0.1 µM, first compound 10 µM
[13] = second compound 0.316 µM, first compound 0.0316 µM
[14] = second compound 0.316 µM, first compound 0.1 µM
[15] = second compound 0.316 µM, first compound 0.316 µM
[16] = second compound 0.316 µM, first compound 1 µM
[17] = second compound 0.316 µM, first compound 3.16 µM
[18] = second compound 0.316 µM, first compound 10 µM
[19] = second compound 1 µM, first compound 0.0316 µM
[20] = second compound 1 µM, first compound 0.1 µM
[21] = second compound 1 µM, first compound 0.316 µM
[22] = second compound 1 µM, first compound 1 µM
[23] = second compound 1 µM, first compound 3.16 µM
[24] = second compound 1 µM, first compound 10 µM
[25] = second compound 3.16 µM, first compound 0.0316 µM
[26] = second compound 3.16 µM, first compound 0.1 µM
[27] = second compound 3.16 µM, first compound 0.316 µM
[28] = second compound 3.16 µM, first compound 1 µM
[29] = second compound 3.16 µM, first compound 3.16 µM
[30] = second compound 3.16 µM, first compound 10 µM
[31] = second compound 10 µM, first compound 0.0316 µM
[32] = second compound 10 µM, first compound 0.1 µM
[33] = second compound 10 µM, first compound 0.316 µM
[34] = second compound 10 µM, first compound 1 µM
[35] = second compound 10 µM, first compound 3.16 µM
[36] = second compound 10 µM, first compound 10 µM
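Note: spheroids exposed to agents for 7 days before viability reading.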
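Throughout, for viability, T/C: percent of DMSO vehicle control viability so 100% = vehicle and 0% = no viable signal.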

SMILES: CNCc1ccc(-c2[nH]c3cc(F)cc4c3c2CCNC4=O)cc1 + Nc1ccc(C#CCN(C(=O)Cc2ncc(C(F)(F)F)cc2C(F)(F)F)c2ccc(F)cc2)nn1
- IC50 (second compound 0.0316 µM): > 10 µM
- IC50 (second compound 0.1 µM): > 10 µM
- IC50 (second compound 0.316 µM): > 10 µM
- IC50 (second compound 1 µM): > 10 µM
- IC50 (second compound 3.16 µM): > 10 µM
- IC50 (second compound 10 µM): > 10 µM
- viability, T/C [1]: 103%
- viability, T/C [2]: 98.8%
- viability, T/C [3]: 95.9%
- viability, T/C [4]: 115%
- viability, T/C [5]: 115%
- viability, T/C [6]: 123%
- viability, T/C [7]: 95.8%
- viability, T/C [8]: 104%
- viability, T/C [9]: 100%
- viability, T/C [10]: 105%
- viability, T/C [11]: 113%
- viability, T/C [12]: 118%
- viability, T/C [13]: 85.2%
- viability, T/C [14]: 109%
- viability, T/C [15]: 105%
- viability, T/C [16]: 102%
- viability, T/C [17]: 127%
- viability, T/C [18]: 132%
- viability, T/C [19]: 94.9%
- viability, T/C [20]: 90%
- viability, T/C [21]: 100%
- viability, T/C [22]: 94.6%
- viability, T/C [23]: 112%
- viability, T/C [24]: 132%
- viability, T/C [25]: 105%
- viability, T/C [26]: 93.6%
- viability, T/C [27]: 109%
- viability, T/C [28]: 104%
- viability, T/C [29]: 105%
- viability, T/C [30]: 122%
- viability, T/C [31]: 99.7%
- viability, T/C [32]: 104%
- viability, T/C [33]: 107%
- viability, T/C [34]: 107%
- viability, T/C [35]: 130%
- viability, T/C [36]: 120%

SMILES: COc1cccc(OCCCN)c1-c1cc(Nc2cnc(C#N)cn2)n[nH]1 + Nc1ccc(C#CCN(C(=O)Cc2ncc(C(F)(F)F)cc2C(F)(F)F)c2ccc(F)cc2)nn1
- IC50 (second compound 0.0316 µM): > 1 µM
- IC50 (second compound 0.1 µM): > 1 µM
- IC50 (second compound 0.316 µM): > 1 µM
- IC50 (second compound 1 µM): > 1 µM
- IC50 (second compound 3.16 µM): > 1 µM
- IC50 (second compound 10 µM): > 1 µM
- viability, T/C (second compound 0.0316 µM, first compound 0.00316 µM): 90.3%
- viability, T/C (second compound 0.0316 µM, first compound 0.01 µM): 101%
- viability, T/C [1]: 72.8%
- viability, T/C [2]: 64.2%
- viability, T/C [3]: 62.4%
- viability, T/C [4]: 65%
- viability, T/C (second compound 0.1 µM, first compound 0.00316 µM): 92.2%
- viability, T/C (second compound 0.1 µM, first compound 0.01 µM): 101%
- viability, T/C [7]: 73.4%
- viability, T/C [8]: 59.3%
- viability, T/C [9]: 65.8%
- viability, T/C [10]: 56.1%
- viability, T/C (second compound 0.316 µM, first compound 0.00316 µM): 99.3%
- viability, T/C (second compound 0.316 µM, first compound 0.01 µM): 93.8%
- viability, T/C [13]: 74.8%
- viability, T/C [14]: 68.6%
- viability, T/C [15]: 60.8%
- viability, T/C [16]: 59.9%
- viability, T/C (second compound 1 µM, first compound 0.00316 µM): 111%
- viability, T/C (second compound 1 µM, first compound 0.01 µM): 100%
- viability, T/C [19]: 79.6%
- viability, T/C [20]: 69%
- viability, T/C [21]: 62.2%
- viability, T/C [22]: 55.8%
- viability, T/C (second compound 3.16 µM, first compound 0.00316 µM): 109%
- viability, T/C (second compound 3.16 µM, first compound 0.01 µM): 94.4%
- viability, T/C [25]: 70.1%
- viability, T/C [26]: 60.6%
- viability, T/C [27]: 66.1%
- viability, T/C [28]: 65%
- viability, T/C (second compound 10 µM, first compound 0.00316 µM): 121%
- viability, T/C (second compound 10 µM, first compound 0.01 µM): 92.3%
- viability, T/C [31]: 71.8%
- viability, T/C [32]: 64.7%
- viability, T/C [33]: 66.3%
- viability, T/C [34]: 60.5%

SMILES: Nc1ccn(C2OC(CO)C(O)C2(F)F)c(=O)n1 (stereo unspecified) + Nc1ccc(C#CCN(C(=O)Cc2ncc(C(F)(F)F)cc2C(F)(F)F)c2ccc(F)cc2)nn1
- IC50 (second compound 0.0316 µM): 0.476 µM
- IC50 (second compound 0.1 µM): 0.771 µM
- IC50 (second compound 0.316 µM): 1.77 µM
- IC50 (second compound 1 µM): 2.37 µM
- IC50 (second compound 3.16 µM): 1.44 µM
- IC50 (second compound 10 µM): 2.16 µM
- viability, T/C [1]: 71.5%
- viability, T/C [2]: 58.8%
- viability, T/C [3]: 50.5%
- viability, T/C [4]: 46.9%
- viability, T/C [5]: 50%
- viability, T/C [6]: 43%
- viability, T/C [7]: 78.4%
- viability, T/C [8]: 65.5%
- viability, T/C [9]: 52%
- viability, T/C [10]: 46%
- viability, T/C [11]: 55.6%
- viability, T/C [12]: 37.5%
- viability, T/C [13]: 81.3%
- viability, T/C [14]: 60.5%
- viability, T/C [15]: 55.9%
- viability, T/C [16]: 55.4%
- viability, T/C [17]: 49.6%
- viability, T/C [18]: 44.6%
- viability, T/C [19]: 79.2%
- viability, T/C [20]: 63.9%
- viability, T/C [21]: 57.4%
- viability, T/C [22]: 58.5%
- viability, T/C [23]: 51.5%
- viability, T/C [24]: 41%
- viability, T/C [25]: 84.2%
- viability, T/C [26]: 68.3%
- viability, T/C [27]: 55.2%
- viability, T/C [28]: 55.3%
- viability, T/C [29]: 49%
- viability, T/C [30]: 40%
- viability, T/C [31]: 103%
- viability, T/C [32]: 82.8%
- viability, T/C [33]: 63.1%
- viability, T/C [34]: 52.8%
- viability, T/C [35]: 50.9%
- viability, T/C [36]: 44.9%
